Measurements reported in ChEMBL document CHEMBL5352439, “Design, synthesis, biological evaluation and molecular docking study of novel urea-based benzamide derivatives as potent poly(ADP-ribose) polymerase-1 (PARP-1) inhibitors” (Eur J Med Chem, 2022).

Columns and labels:
HCT-116 [1] = assay: Induction of apoptosis in human HCT-116 cells assessed as viable cells at 15 uM incubated for 48 hrs by Annexin-V and PI staining based flow cytometry analysis (reference value: 98.60%); type: functional; details: read-out: Activity
HCT-116 [2] = assay: Induction of apoptosis in human HCT-116 cells assessed as early apoptotic cells at 15 uM incubated for 48 hrs by Annexin-V and PI staining based flow cytometry analysis (reference value: 1.26%); type: functional
MDA-MB-231 [3] = assay: Antiproliferative activity against human MDA-MB-231 cells assessed as inhibition of cell growth incubated for 48 hrs by MTT assay; type: functional, cell-based; details: MDA-MB-231, 48 h
HCT-116 [4] = assay: Inhibition of cell migration in human HCT-116 cells at 7.5 uM incubated for 48 hrs by wound healing assay (reference value: 42.8 %); type: functional
HCT-116 [5] = assay: Inhibition of cell migration in human HCT-116 cells at 15 uM incubated for 24 hrs by wound healing assay (reference value: 32.0 %); type: functional
HCT-116 [6] = assay: Induction of cell cycle arrest in human HCT-116 cells assessed as decrease in cells at G0/G1 phase at 7.5 to 10 uM incubated for 48 hrs by propidium iodide staining based flow cytometry analysis (reference value: 66.42 %); type: functional; design: scale not given: the % may be the effect or the level left; details: dose 7.5-10 µM
HCT-116 [7] = assay: Inhibition of colony formation in human HCT-116 cells measured every 3 days for 14 days by crystal violet staining based assay; type: functional, cell-based; details: dose 1.88-15 µM, time 14.0 day
HCT-116 [8] = assay: Induction of apoptosis in human HCT-116 cells assessed as viable cells at 7.5 uM incubated for 48 hrs by Annexin-V and PI staining based flow cytometry analysis (reference value: 98.60%); type: functional; details: read-out: Activity
A-375 [9] = assay: Antiproliferative activity against human A-375 cells assessed as inhibition of cell growth at 20 uM incubated for 48 hrs by MTT assay; type: functional
HCT-116 [10] = assay: Inhibition of cell migration in human HCT-116 cells at 7.5 uM incubated for 24 hrs by wound healing assay (reference value: 32.0 %); type: functional
HCT-116 [11] = assay: Inhibition of colony formation in human HCT-116 cells at 10 uM measured every 3 days for 14 days by crystal violet staining based assay; type: functional; details: HCT-116, 336 h, time 14 day
HCT-116 [12] = assay: Induction of apoptosis in human HCT-116 cells assessed as necrotic cells at 7.5 uM incubated for 48 hrs by Annexin-V and PI staining based flow cytometry analysis (reference value: 0.06%); type: functional
A549 [13] = assay: Antiproliferative activity against human A549 cells assessed as inhibition of cell growth at 20 uM incubated for 48 hrs by MTT assay; type: functional
HCT-116 [14] = assay: Induction of cell cycle arrest in human HCT-116 cells assessed as accumulation of cells at G2/M phase at 7.5 to 10 uM incubated for 48 hrs by propidium iodide staining based flow cytometry analysis (reference value: 27.84 %); type: functional; details: dose 7.5-10 µM
HCT-116 [15] = assay: Induction of apoptosis in human HCT-116 cells assessed as late apoptotic cells at 3.75 uM incubated for 48 hrs by Annexin-V and PI staining based flow cytometry analysis (reference value: 0.06%); type: functional
HCT-116 [16] = assay: Induction of apoptosis in human HCT-116 cells assessed as viable cells at 3.75 uM incubated for 48 hrs by Annexin-V and PI staining based flow cytometry analysis (reference value: 98.60%); type: functional; details: read-out: Activity
HCT-116 [17] = assay: Potency index, ratio of olaparib IC50 to test compound IC50 for antiproliferative activity against human HCT-116 cells; type: functional
MDA-MB-231 [18] = assay: Antiproliferative activity against human MDA-MB-231 cells assessed as inhibition of cell growth at 20 uM incubated for 48 hrs by MTT assay; type: functional
HCT-116 [19] = assay: Induction of apoptosis in human HCT-116 cells assessed as necrotic cells at 3.75 uM incubated for 48 hrs by Annexin-V and PI staining based flow cytometry analysis (reference value: 0.06%); type: functional
HeLa [20] = assay: Antiproliferative activity against human HeLa cells assessed as inhibition of cell growth incubated for 48 hrs by MTT assay; type: functional, cell-based
HCT-116 [21] = assay: Induction of apoptosis in human HCT-116 cells assessed as late apoptotic cells at 15 uM incubated for 48 hrs by Annexin-V and PI staining based flow cytometry analysis (reference value: 0.06%); type: functional
HCT-116 [22] = assay: Inhibition of cell migration in human HCT-116 cells at 15 uM incubated for 48 hrs by wound healing assay (reference value: 42.8 %); type: functional
L02 = assay: Antiproliferative activity against human L02 cells assessed as inhibition of cell growth […] incubated for 48 hrs by MTT assay; type: functional, cell-based; details: L02, 48 h
HCT-116 [23] = assay: Induction of apoptosis in human HCT-116 cells assessed as early apoptotic cells at 3.75 uM incubated for 48 hrs by Annexin-V and PI staining based flow cytometry analysis (reference value: 1.26%); type: functional
HeLa [24] = assay: Antiproliferative activity against human HeLa cells assessed as inhibition of cell growth at 20 uM incubated for 48 hrs by MTT assay; type: functional
HCT-116 [25] = assay: Inhibition of colony formation in human HCT-116 cells at 7.5 uM measured every 3 days for 14 days by crystal violet staining based assay; type: functional; details: HCT-116, 336 h, time 14 day
[26] = target: Poly [ADP-ribose] polymerase 1 (Homo sapiens, UniProt P09874); assay: Inhibition of PARP1 (unknown origin) by ELISA
HCT-116 [27] = assay: Antiproliferative activity against human HCT-116 cells assessed as inhibition of cell growth at 20 uM incubated for 48 hrs by MTT assay; type: functional
A-375 [28] = assay: Antiproliferative activity against human A-375 cells assessed as inhibition of cell growth incubated for 48 hrs by MTT assay; type: functional, cell-based; details: A-375, 48 h
HCT-116 [29] = assay: Induction of apoptosis in human HCT-116 cells assessed as late apoptotic cells at 7.5 uM incubated for 48 hrs by Annexin-V and PI staining based flow cytometry analysis (reference value: 0.06%); type: functional
HCT-116 [30] = assay: Induction of apoptosis in human HCT-116 cells assessed as early apoptotic cells at 7.5 uM incubated for 48 hrs by Annexin-V and PI staining based flow cytometry analysis (reference value: 1.26%); type: functional
A549 [31] = assay: Antiproliferative activity against human A549 cells assessed as inhibition of cell growth incubated for 48 hrs by MTT assay; type: functional, cell-based; details: A549, 48 h
HCT-116 [32] = assay: Induction of apoptosis in human HCT-116 cells assessed as necrotic cells at 15 uM incubated for 48 hrs by Annexin-V and PI staining based flow cytometry analysis (reference value: 0.06%); type: functional
HCT-116 [33] = assay: Inhibition of cell migration in human HCT-116 cells at 25 uM incubated for 24 hrs by wound healing assay (reference value: 32.0 %); type: functional
HCT-116 [34] = assay: Antiproliferative activity against human HCT-116 cells assessed as inhibition of cell growth incubated for 48 hrs by MTT assay; type: functional, cell-based; details: HCT-116, 48 h
HCT-116 [35] = assay: Inhibition of cell migration in human HCT-116 cells at 25 uM incubated for 48 hrs by wound healing assay (reference value: 42.8 %); type: functional

Sequence of Poly [ADP-ribose] polymerase 1 (P09874 whole entry): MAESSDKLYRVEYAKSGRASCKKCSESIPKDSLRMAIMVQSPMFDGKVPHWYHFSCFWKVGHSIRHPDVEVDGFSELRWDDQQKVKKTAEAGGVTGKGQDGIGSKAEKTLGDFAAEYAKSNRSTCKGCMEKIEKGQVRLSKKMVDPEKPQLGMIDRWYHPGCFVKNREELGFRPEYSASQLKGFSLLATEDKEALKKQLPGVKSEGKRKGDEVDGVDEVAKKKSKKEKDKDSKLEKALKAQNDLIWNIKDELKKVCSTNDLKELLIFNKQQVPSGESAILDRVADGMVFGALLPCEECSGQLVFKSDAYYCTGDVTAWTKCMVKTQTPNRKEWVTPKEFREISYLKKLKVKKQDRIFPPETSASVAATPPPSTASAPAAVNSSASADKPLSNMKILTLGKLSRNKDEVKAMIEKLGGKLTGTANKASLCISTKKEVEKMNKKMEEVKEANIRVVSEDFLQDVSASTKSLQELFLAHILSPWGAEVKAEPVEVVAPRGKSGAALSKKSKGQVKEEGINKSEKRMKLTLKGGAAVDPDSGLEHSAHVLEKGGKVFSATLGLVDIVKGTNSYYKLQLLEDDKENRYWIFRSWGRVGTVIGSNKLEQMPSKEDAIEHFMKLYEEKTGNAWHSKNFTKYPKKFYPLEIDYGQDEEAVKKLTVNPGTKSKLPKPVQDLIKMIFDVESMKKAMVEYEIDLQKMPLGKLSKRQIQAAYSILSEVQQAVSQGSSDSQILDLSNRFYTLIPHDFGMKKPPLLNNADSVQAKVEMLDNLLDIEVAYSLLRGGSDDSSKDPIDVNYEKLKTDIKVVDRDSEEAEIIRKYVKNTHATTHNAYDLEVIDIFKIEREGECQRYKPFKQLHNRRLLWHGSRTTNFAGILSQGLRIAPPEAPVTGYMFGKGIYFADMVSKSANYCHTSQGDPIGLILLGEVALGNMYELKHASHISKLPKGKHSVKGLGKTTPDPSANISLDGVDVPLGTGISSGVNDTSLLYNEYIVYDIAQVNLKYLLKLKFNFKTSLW

## NC(=O)c1ccccc1NCc1cccc(NC(=O)Nc2cccc(Br)c2)c1
HCT-116 [1]
  viability at 15 µM: 54.5%
HCT-116 [2]
  Activity: 42.85%
MDA-MB-231 [3]
  IC50: 13.7 µM
HCT-116 [4]
  inhibition at 7.5 µM: 23.3%
HCT-116 [5]
  inhibition at 15 µM: 14.7%
HCT-116 [6]
  Activity: 55.94%
HCT-116 [7]
  inhibition: Dose-Dependent Effect
HCT-116 [8]
  viability at 7.5 µM: 86.3%
A-375 [9]
  inhibition at 20 µM: 81.8%
HCT-116 [10]
  inhibition at 7.5 µM: 21%
HCT-116 [11]
  inhibition at 10 µM: 100%
HCT-116 [12]
  Activity: 0.1%
A549 [13]
  inhibition at 20 µM: 78.8%
HCT-116 [14]
  Activity: 34.6%
HCT-116 [15]
  Activity: 0.29%
HCT-116 [16]
  viability at 3.75 µM: 89.8%
HCT-116 [17]
  Ratio IC50: 7.87
MDA-MB-231 [18]
  inhibition at 20 µM: 86.8%
HCT-116 [19]
  Activity: 0.1%
HeLa [20]
  IC50: 14.3 µM
HCT-116 [21]
  Activity: 2.2%
HCT-116 [22]
  inhibition at 15 µM: 24.2%
L02
  IC50: 100 µM
HCT-116 [23]
  Activity: 9.81%
HeLa [24]
  inhibition at 20 µM: 72.2%
HCT-116 [25]
  inhibition at 7.5 µM: 100%
[26]
  IC50: 0.00517 µM
HCT-116 [27]
  inhibition at 20 µM: 91%
A-375 [28]
  IC50: 15.1 µM
HCT-116 [29]
  Activity: 0.7%
HCT-116 [30]
  Activity: 12.93%
A549 [31]
  IC50: 12.4 µM
HCT-116 [32]
  Activity: 0.43%

## O=C(c1cc(Cc2n[nH]c(=O)c3ccccc23)ccc1F)N1CCN(C(=O)C2CC2)CC1 [OLAPARIB]
MDA-MB-231 [3]
  IC50: 24.8 µM
HCT-116 [33]
  inhibition at 25 µM: 25.8%
HCT-116 [34]
  IC50: 27.3 µM
HeLa [20]
  IC50: 27.7 µM
HCT-116 [35]
  inhibition at 25 µM: 33.1%
L02
  IC50: 60.7 µM
A-375 [28]
  IC50: 12.7 µM
A549 [31]
  IC50: 31.6 µM

## NC(=O)c1ccccc1NCc1cccc(NC(=O)Nc2cccc(Cl)c2)c1
MDA-MB-231 [3]
  IC50: 16.1 µM
A-375 [9]
  inhibition at 20 µM: 75.7%
HCT-116 [34]
  IC50: 11.3 µM
A549 [13]
  inhibition at 20 µM: 85.3%
MDA-MB-231 [18]
  inhibition at 20 µM: 70.9%
HeLa [20]
  IC50: 34 µM
HeLa [24]
  inhibition at 20 µM: 44.4%
HCT-116 [27]
  inhibition at 20 µM: 84%
A-375 [28]
  IC50: 25.4 µM
A549 [31]
  IC50: 15.6 µM

## NC(=O)c1ccccc1OCc1ccc(NC(=O)Nc2cccc(Br)c2)cc1
MDA-MB-231 [3]
  IC50: 27.4 µM
A-375 [9]
  inhibition at 20 µM: 54%
HCT-116 [34]
  IC50: 17.6 µM
A549 [13]
  inhibition at 20 µM: 42.4%
MDA-MB-231 [18]
  inhibition at 20 µM: 46.1%
HeLa [20]
  IC50: 17.6 µM
HeLa [24]
  inhibition at 20 µM: 60.4%
HCT-116 [27]
  inhibition at 20 µM: 62.2%
A-375 [28]
  IC50: 13.4 µM
A549 [31]
  IC50: 26.8 µM

## NC(=O)c1ccccc1NCc1ccc(NC(=O)Nc2cccc(Cl)c2)cc1
MDA-MB-231 [3]
  IC50: 20.5 µM
A-375 [9]
  inhibition at 20 µM: 58.3%
HCT-116 [34]
  IC50: 13.1 µM
A549 [13]
  inhibition at 20 µM: 52.6%
MDA-MB-231 [18]
  inhibition at 20 µM: 47.3%
HeLa [20]
  IC50: 12.1 µM
HeLa [24]
  inhibition at 20 µM: 76.5%
HCT-116 [27]
  inhibition at 20 µM: 63.6%
A-375 [28]
  IC50: 25.4 µM
A549 [31]
  IC50: 19.9 µM

## NC(=O)c1ccccc1OCc1cccc(NC(=O)Nc2cccc(Cl)c2)c1
MDA-MB-231 [3]
  IC50: 21.2 µM
A-375 [9]
  inhibition at 20 µM: 63.1%
HCT-116 [34]
  IC50: 12.3 µM
A549 [13]
  inhibition at 20 µM: 85%
MDA-MB-231 [18]
  inhibition at 20 µM: 65.2%
HeLa [20]
  IC50: 12.7 µM
HeLa [24]
  inhibition at 20 µM: 77.6%
HCT-116 [27]
  inhibition at 20 µM: 83.3%
A-375 [28]
  IC50: 28.5 µM
A549 [31]
  IC50: 12.4 µM
